Test results reported in EP3426036B1, “CROP ENHANCEMENT” (priority 2016, dated 2017).

What was measured:
[1] = system: detached wheat (Triticum aestivum var. Arina) leaves; assay: Detached leaf transpiration and photosynthesis analysis; format: in vivo, Triticum aestivum L.
Procedure: Winter wheat (Triticum aestivum L.) of the variety Arina was used for the detached leaf transpiration assay. Plants were grown under optimum conditions in growth chambers until BBCH 12. The seedlings were dark-adapted for one hour; the second leaf was cut under water and directly placed into a 1.5 mL test-tube filled with 1 mL of compound I solution. The solution was prepared by dissolving compound I in dimethyl sulfoxide (DMSO) and diluting in water to the final concentrations of 3, 10, 50 and 100 mg L^-1. After weighing the initial weight of the leaf-tube-system, the leaves were placed in growth chambers at 25°C, 60% relative humidity and a light intensity of 150 µmol m^-2 s^-1 at 14 hours photoperiod. Transpiration was quantified by measuring the weight of the leaf-tube-system after 6 and 24 hours. Tubes without leaves solely filled with water were used to correct for evaporation. At 6 hours, the operating quantum efficiency of photosystem II (φPSII), which is a proxy of the photosynthetic activity, was monitored under growth conditions from the middle of the leaf using a PAM-2500 fluorometer (Walz, Effeltrich, Germany). The experimental design was a randomized complete block design with five replications for each treatment; one experimental unit was one leaf per test-tube. Statistical analysis (ANOVA) was done with Agstat 1.6 / ACSAP 4.29.

Soybean plants [2] = assay: Crop enhancement effect on soybean under drought conditions, then optimal conditions (Example 2b); format: in vivo; settings: for Dry weight of pods: 21 days drought then 25 days optimal conditions
Procedure: Soybean plants were grown in pots. The plants were treated at R1 (33 days after sewing) or three days before R3 (40 days after sewing) with the compound of formula I at 0.75 l/ha. An untreated control plant was also included. After treatment, the plants were subjected to drought conditions for 21 days before being allowed to grow under optimal conditions for a further 25 days. Eight replicates of the control and each treatment were harvested for analysis of yield and chlorophyll content. […]

Durum wheat = assay: Crop enhancement effect on wheat under drought conditions in the field (Example 1c); format: in vivo; settings: for Protein content / Grain Yield / TGW / No. of grains per ear: 75.0 g a.i/ha at BBCH GS 39; for Grain Yield / TGW: adjusted to 10% standard moisture; for No. of grains per ear: average of 10 ears per plot
Procedure: Durum wheat (plot size 24m^2) was treated with a single application at BBCH GS 39 (flag leaf stage) with the compound of formula I at a rate of 75.0 g a.i/ha. The plants were split into non-irrigated (only rainfed) and irrigated with 50% of evapotranspiration compensation. Untreated check plants were also included in both water supply conditions. These water supply conditions were maintained during the reproductive stages of plant growth (BBCH 55-73). The trial was carried out with six replicates.
At the end of the trial, a 12m^2 plot was harvested from each of four replicates for each water supply condition. […]
In addition to the above factors, the Normalised Difference Vegetation Index (NDVI) was also assessed. This is an estimate of the photosynthetically absorbed radiation over the crop surfaces and allows an estimate of the Leaf Area Index in order to track plant growth and vigour. The NDVI was measured several times during the trial with two handheld crop devices with active light source optical sensors: GreenSeeker HCS-100 (7 measurements) and RapidSCAN CS-45 (5 measurements).

Soybean plants [3] = assay: Crop enhancement effect on soybean under drought conditions, yield analysis (Example 2a); format: in vivo; settings: drought until day 65
Procedure: Soybean plants were grown in pots. The plants were treated at R1 (36 days after sewing) or R3 (44 days after sewing) with the compound of formula I at 0.75 l/ha. An untreated control plant was also included. After treatment, the plants were subjected to drought conditions until the end of the trial at day 65. Five replicates of the control and each treatment were harvested for analysis of yield and enzymatic activity. […]

[4] = 0.75 l/ha @ R1, 3 days after application
[5] = 0.75 l/ha @ R1, 7 days after application
[6] = 0.75 l/ha @ R1, 10 days after application
[7] = 0.75 l/ha @ R1, 14 days after application
[8] = 0.75 l/ha @ R1, 21 days after application
[9] = 0.75 l/ha @ R1, 24 days after application
[10] = 0.75 l/ha @ R1, 28 days after application
[11] = 0.75 l/ha @ R1, 31 days after application
[12] = 0.75 l/ha @ R1, 36 days after application
[13] = 0.75 l/ha @ R1, 41 days after application
[14] = 0.75 l/ha @ R1, 43 days after application
[15] = 0.75 l/ha @ R1, -1 days after application
[16] = 0.75 l/ha @ R3 - 3 days, 0 days after application
[17] = 0.75 l/ha @ R3 - 3 days, 3 days after application
[18] = 0.75 l/ha @ R3 - 3 days, 7 days after application
[19] = 0.75 l/ha @ R3 - 3 days, 14 days after application
[20] = 0.75 l/ha @ R3 - 3 days, 17 days after application
[21] = 0.75 l/ha @ R3 - 3 days, 21 days after application
[22] = 0.75 l/ha @ R3 - 3 days, 24 days after application
[23] = 0.75 l/ha @ R3 - 3 days, 29 days after application
[24] = 0.75 l/ha @ R3 - 3 days, 34 days after application
[25] = 0.75 l/ha @ R3 - 3 days, 36 days after application
[26] = 0.75 l/ha @ R3 - 3 days, -3 days after application
[27] = 0.75 l/ha @ R3 - 3 days, -7 days after application

Cn1cc(C(=O)Nc2cccc3c2C2CCC3C2=C(Cl)Cl)c(C(F)F)n1 (stereo not shown) [Compound I, benzovindiflupyr]
leaf transpiration ([1]; 3, 10, 50 and 100 mg L^-1, 0 to 24 hours): significantly decreased leaf transpiration in a dose-dependent manner
leaf transpiration ([1]; 3 and 10 mg L^-1, first 6 hours): decreased only little
leaf transpiration ([1]; 50 and 100 mg L^-1, within 6 hours of treatment): clearly visible
operating quantum efficiency of photosystem II (φPSII) ([1]; at 6 hours, 3 to 100 mg L^-1): did not show an impact
Average plant colour (increase/decrease (%) compared to negative control treatment) (Soybean plants [2]; [4]): 1.3%
Digital biomass (increase/decrease (%) compared to negative control treatment) (Soybean plants [2]; [4]): 2.6%
Average plant colour (increase/decrease (%) compared to negative control treatment) (Soybean plants [2]; [5]): 0.4%
Digital biomass (increase/decrease (%) compared to negative control treatment) (Soybean plants [2]; [5]): 0.4%
Average plant colour (increase/decrease (%) compared to negative control treatment) (Soybean plants [2]; [6]): -0.4%
Digital biomass (increase/decrease (%) compared to negative control treatment) (Soybean plants [2]; [6]): 1.9%
Average plant colour (increase/decrease (%) compared to negative control treatment) (Soybean plants [2]; [7]): -0.6%
Digital biomass (increase/decrease (%) compared to negative control treatment) (Soybean plants [2]; [7]): 2.4%
Average plant colour (increase/decrease (%) compared to negative control treatment) (Soybean plants [2]; [8]): -0.3%
Digital biomass (increase/decrease (%) compared to negative control treatment) (Soybean plants [2]; [8]): -1.5%
Dry weight of pods (Soybean plants [2]; 0.75 l/ha @ R1): 106.3 % of control
Average plant colour (increase/decrease (%) compared to negative control treatment) (Soybean plants [2]; [9]): -0.3%
Digital biomass (increase/decrease (%) compared to negative control treatment) (Soybean plants [2]; [9]): -1.1%
Average plant colour (increase/decrease (%) compared to negative control treatment) (Soybean plants [2]; [10]): -1.6%
Digital biomass (increase/decrease (%) compared to negative control treatment) (Soybean plants [2]; [10]): 1.2%
Average plant colour (increase/decrease (%) compared to negative control treatment) (Soybean plants [2]; [11]): -3.0%
Digital biomass (increase/decrease (%) compared to negative control treatment) (Soybean plants [2]; [11]): -3.7%
Average plant colour (increase/decrease (%) compared to negative control treatment) (Soybean plants [2]; [12]): -0.5%
Digital biomass (increase/decrease (%) compared to negative control treatment) (Soybean plants [2]; [12]): -6.3%
Average plant colour (increase/decrease (%) compared to negative control treatment) (Soybean plants [2]; [13]): -1.4%
Digital biomass (increase/decrease (%) compared to negative control treatment) (Soybean plants [2]; [13]): -9.2%
Average plant colour (increase/decrease (%) compared to negative control treatment) (Soybean plants [2]; [14]): -2.0%
Digital biomass (increase/decrease (%) compared to negative control treatment) (Soybean plants [2]; [14]): -6.9%
Average plant colour (increase/decrease (%) compared to negative control treatment) (Soybean plants [2]; [15]): 0.3%
Digital biomass (increase/decrease (%) compared to negative control treatment) (Soybean plants [2]; [15]): 1.5%
Average plant colour (increase/decrease (%) compared to negative control treatment) (Soybean plants [2]; [16]): 0.4%
Digital biomass (increase/decrease (%) compared to negative control treatment) (Soybean plants [2]; [16]): 3.6%
Average plant colour (increase/decrease (%) compared to negative control treatment) (Soybean plants [2]; [17]): 1.3%
Digital biomass (increase/decrease (%) compared to negative control treatment) (Soybean plants [2]; [17]): 4.3%
Average plant colour (increase/decrease (%) compared to negative control treatment) (Soybean plants [2]; [18]): 0.4%
Digital biomass (increase/decrease (%) compared to negative control treatment) (Soybean plants [2]; [18]): 2.7%
Average plant colour (increase/decrease (%) compared to negative control treatment) (Soybean plants [2]; [19]): -0.2%
Digital biomass (increase/decrease (%) compared to negative control treatment) (Soybean plants [2]; [19]): 1.5%
Average plant colour (increase/decrease (%) compared to negative control treatment) (Soybean plants [2]; [20]): 1.4%
Digital biomass (increase/decrease (%) compared to negative control treatment) (Soybean plants [2]; [20]): 4.4%
Average plant colour (increase/decrease (%) compared to negative control treatment) (Soybean plants [2]; [21]): 0.2%
Digital biomass (increase/decrease (%) compared to negative control treatment) (Soybean plants [2]; [21]): 4.4%
Dry weight of pods (Soybean plants [2]; 0.75 l/ha @ R3 - 3 days): 105.8 % of control
Average plant colour (increase/decrease (%) compared to negative control treatment) (Soybean plants [2]; [22]): 1.3%
Digital biomass (increase/decrease (%) compared to negative control treatment) (Soybean plants [2]; [22]): -2.4%
Average plant colour (increase/decrease (%) compared to negative control treatment) (Soybean plants [2]; [23]): -0.5%
Digital biomass (increase/decrease (%) compared to negative control treatment) (Soybean plants [2]; [23]): -0.9%
Average plant colour (increase/decrease (%) compared to negative control treatment) (Soybean plants [2]; [24]): -2.3%
Digital biomass (increase/decrease (%) compared to negative control treatment) (Soybean plants [2]; [24]): -3.3%
Average plant colour (increase/decrease (%) compared to negative control treatment) (Soybean plants [2]; [25]): -3.9%
Digital biomass (increase/decrease (%) compared to negative control treatment) (Soybean plants [2]; [25]): 1.6%
Average plant colour (increase/decrease (%) compared to negative control treatment) (Soybean plants [2]; [26]): 0.4%
Digital biomass (increase/decrease (%) compared to negative control treatment) (Soybean plants [2]; [26]): 2.2%
Average plant colour (increase/decrease (%) compared to negative control treatment) (Soybean plants [2]; [27]): 0.1%
Digital biomass (increase/decrease (%) compared to negative control treatment) (Soybean plants [2]; [27]): -1.2%
Protein content (Durum wheat; 50% ET compensation): 15.45%
Grain Yield (Durum wheat; 50% ET compensation): 60.60 dT/Ha
TGW (Durum wheat; 50% ET compensation): 45.78 g
No. of grains per ear (Durum wheat; 50% ET compensation): 42.08
Normalised Difference Vegetation Index (NDVI) (Durum wheat; GreenSeeker HCS-100, BBCH 69(1), 50% ET compensation): 0.820
Normalised Difference Vegetation Index (NDVI) (Durum wheat; GreenSeeker HCS-100, BBCH 69(1), non-irrigated): 0.788
Normalised Difference Vegetation Index (NDVI) (Durum wheat; GreenSeeker HCS-100, BBCH 69(2), 50% ET compensation): 0.787
Normalised Difference Vegetation Index (NDVI) (Durum wheat; GreenSeeker HCS-100, BBCH 69(2), non-irrigated): 0.747
Normalised Difference Vegetation Index (NDVI) (Durum wheat; GreenSeeker HCS-100, BBCH 73, 50% ET compensation): 0.750
Normalised Difference Vegetation Index (NDVI) (Durum wheat; GreenSeeker HCS-100, BBCH 73, non-irrigated): 0.672
Normalised Difference Vegetation Index (NDVI) (Durum wheat; GreenSeeker HCS-100, BBCH 75-83, 50% ET compensation): 0.705
Normalised Difference Vegetation Index (NDVI) (Durum wheat; GreenSeeker HCS-100, BBCH 75-83, non-irrigated): 0.557
Normalised Difference Vegetation Index (NDVI) (Durum wheat; GreenSeeker HCS-100, BBCH 83-85, 50% ET compensation): 0.673
Normalised Difference Vegetation Index (NDVI) (Durum wheat; GreenSeeker HCS-100, BBCH 83-85, non-irrigated): 0.468
Normalised Difference Vegetation Index (NDVI) (Durum wheat; GreenSeeker HCS-100, BBCH 85, 50% ET compensation): 0.572
Normalised Difference Vegetation Index (NDVI) (Durum wheat; GreenSeeker HCS-100, BBCH 85, non-irrigated): 0.375
Normalised Difference Vegetation Index (NDVI) (Durum wheat; GreenSeeker HCS-100, BBCH 87, 50% ET compensation): 0.464
Normalised Difference Vegetation Index (NDVI) (Durum wheat; GreenSeeker HCS-100, BBCH 87, non-irrigated): 0.185
Normalised Difference Vegetation Index (NDVI) (Durum wheat; RapidSCAN CS-45, BBCH 69, 50% ET compensation): 0.663
Normalised Difference Vegetation Index (NDVI) (Durum wheat; RapidSCAN CS-45, BBCH 69, non-irrigated): 0.592
Normalised Difference Vegetation Index (NDVI) (Durum wheat; RapidSCAN CS-45, BBCH 73, 50% ET compensation): 0.657
Normalised Difference Vegetation Index (NDVI) (Durum wheat; RapidSCAN CS-45, BBCH 73, non-irrigated): 0.625
Normalised Difference Vegetation Index (NDVI) (Durum wheat; RapidSCAN CS-45, BBCH 83-85, 50% ET compensation): 0.572
Normalised Difference Vegetation Index (NDVI) (Durum wheat; RapidSCAN CS-45, BBCH 83-85, non-irrigated): 0.393
Normalised Difference Vegetation Index (NDVI) (Durum wheat; RapidSCAN CS-45, BBCH 85, 50% ET compensation): 0.538
Normalised Difference Vegetation Index (NDVI) (Durum wheat; RapidSCAN CS-45, BBCH 85, non-irrigated): 0.320
Normalised Difference Vegetation Index (NDVI) (Durum wheat; RapidSCAN CS-45, BBCH 87, 50% ET compensation): 0.204
Normalised Difference Vegetation Index (NDVI) (Durum wheat; RapidSCAN CS-45, BBCH 87, non-irrigated): 0.083
Protein content (Durum wheat; non-irrigated): 12.68%
Grain Yield (Durum wheat; non-irrigated): 57.73 dT/Ha
TGW (Durum wheat; non-irrigated): 51.16 g
No. of grains per ear (Durum wheat; non-irrigated): 37.88
Dry weight of pods (Soybean plants [3]; 0.75 l/ha @ R1): 114.8 % of control
Dry weight of pods (Soybean plants [3]; 0.75 l/ha @ R3): 122.7 % of control
